Where two headings read alike, the source gives them in different places.
Columns and labels:
[1] = Hepatic first-pass effect / hepatic clearance rate (jugular vs pyloric vein AUC0-t) in inflamed rats; format: in vivo, Sprague-Dawley rats; details: inflamed rats (G5, n = 5), oral HLJDD; HCR% = 100×(AUC0−t pyloric vein − AUC0−t jugular vein)/AUC0−t pyloric vein
Method: (§1) For the PK-PD analysis, cannulas were implanted in each rat’s jugular vein (n = 22). To study the hepatic first-pass effect (HFPE), the jugular vein and the pyloric vein of each rat (n = 5) were cannulated according to the method described by Hye J. Chung et al. with slight modifications. Instead of the portal vein, the pyloric vein was cannulated to minimize the interference of blood flow in the portal vein [41]. The surgery was performed under anesthesia (3% chloral hydrate solution, intraperitoneal injection; 3.5 mL/kg) 5 days prior to the experiment. Rats with jugular vein intubation surgery were divided into four groups: a control group with HLJDD (G1, n = 6), aninflammatory group with HLJDD (G2, n = 6), aninflammatory group with physiological saline (G3, n = 5) and another inflammatory group with HLJDD (G4, n = 5). G1 and G2 were used for the pharmacokinetic study, while G3 and G4 were used for the pharmacodynamic study. Rats with jugular and pyloric vein cannulation for HFPE analysis were assigned to another inflammatory group with HLJDD (G5, n = 5).
The prepared HLJDD-EP solution was administered to the rats (G1, G2, G4 and G5) at 2 mL/100g body weight (crude material content: 3.5 g/kg) by oral gavage, and the G3 group was given the same volume of physiological saline. In the G1 and G2 groups, blood specimens (300 μL) were obtained before dosing and subsequently at 5 min, 10 min, 30 min, 1, 2, 4, 6, 8, 12, 24, 36 and 48 h after the oral administration of HLJDD-EP solution. In the G3 and G4 groups, blood samples (300 μL) were collected prior to dosing and followed at 10 min, 30 min, 1, 2, 4, 8, 24 and 48 h after drug administration. The rectal temperature of rats in the G3 and G4 groups was immediately monitored after each collection of blood. For the HFPE assay, blood specimens (150 μL) from both the jugular vein and the pyloric vein of the G5 rats were simultaneously taken before dosing and subsequently at 5 min, 10 min, 30 min, 1, 2, 4, 6, 8, 12, 24, 36 and 48 h after oral administration. Samples were collected in heparinized Eppendorf tubes and centrifuged at 3000 rpm for 15 min. The plasma was stored at -80°C until assay.
For the pharmacokinetic investigation and HFPE analysis, 100 μL aliquots of plasma were mixed with 5 μL of ascorbic acid (dissolved in physiological saline, w/v: 1 g/100 mL) and 200 μL of methanol (containing an internal standard stock solution with 80.0 ng/mL swertiamarin, 1.5 ng/mL corynoline and 33.0 ng/mL icariin), followed by vortexing and centrifuging at 15000 rpm for 20 min to remove the precipitate. The supernatant was dried with nitrogen at 40°C. […] The supernatant was analyzed using Agilent 1290 ultra-high performance liquid chromatography coupled with an Agilent 6490 Triple Quadrupole Mass Spectrometer (Agilent Technologies, Palo Alto, CA, USA).
Pharmacokinetic parameters of the determined compounds were processed by the non-compartmental method using Phoenix Winnonlin software (Pharsight Corporation, USA). […] The mean residence time (MRT) was determined as AUMC/AUC. The plasma half-life (HLλz), maximum plasma concentration (Cmax), the time to reach Cmax (Tmax) and other parameters following the administration of HLJDD were determined from the observed data. […] Concentrations of cytokines were analyzed by cytometric bead array software (FCAP Array version 3.0, BD Bioscience). All the data were expressed as the mean±standard deviation (SD). […]

[2] = Pharmacokinetics of HLJDD components in rat plasma after oral administration of HLJDD (LC-QqQ-MS, non-compartmental); format: in vivo, Sprague-Dawley rats; details: oral HLJDD extract; for AUC%Extrap / AUMClast / Cmax1 / Cmax2 / HLλz / Tmax1 / Tmax2 / AUC(0-inf) / AUC(0-t) / MRT last / CL/F / Vd/F / AUCinf / AUClast / MRTlast / Vz/F: crude material 3.5 g/kg, plasma, n = 6; for Vd/F: read-out: Vz/F
Method: The rats were acclimatized to the facilities for 5 days and screened via the continuous determination of the rectal temperature for two days. […] The control group G1 was injected with the same volume of physiological saline. The ethics committees of Cisco North Biotechnology Co., Ltd. (Beijing, China) and the China Academy of Chinese Medical Sciences (Beijing, China) approved the experimental protocol.
as §1
The prepared HLJDD-EP solution was administered to the rats (G1, G2, G4 and G5) at 2 mL/100g body weight (crude material content: 3.5 g/kg) by oral gavage, and the G3 group was given the same volume of physiological saline. […] The rectal temperature of rats in the G3 and G4 groups was immediately monitored after each collection of blood. […] Samples were collected in heparinized Eppendorf tubes and centrifuged at 3000 rpm for 15 min. The plasma was stored at -80°C until assay.
The supernatant was dried with nitrogen at 40°C. The residue was re-dissolved in 100 μL of methanol and centrifuged at 15000 rpm for 10 min.
Liquid chromatographic separations of the analytes were performed using a Thermo Scientific Hypersil GOLD column (50 mm× 2.1 mm, 1.9 μm). The mobile phase consisted of acetonitrile (solvent A) and 0.1% formic acid in water (solvent B). […] The flow rate was 0.3 mL/min. The injection volume was 2 μL. […] The optimized ESI source parameters were as follows: gas temperature, 200°C; gas flow, 14 L/min; nebulizer pressure, 20 psi; sheath gas temperature, 400°C; and sheath gas flow, 11 L/min. Analytes were quantitated by monitoring the precursor-product combination in the DMRM mode using ion polarity switching (flavonoids and alkaloids were determined in the positive mode, while iridoids were detected in the negative mode). To ensure the desired abundance of each compound, the CE values and other parameters were optimized and illustrated as follows: cycle time, 300 ms; positive capillary voltage, 3000 v; negative capillary voltage, 2000 v; positive nozzle voltage, 1500 v; negative nozzle voltage, 1000 v; Delta EMV(+), 200 v; Delta EMV(-), 200 v. The optimized mass transition ion pairs (m/z) for analytes and the detection of the conditions of the compounds are shown in S1 Table.
Pharmacokinetic parameters of the determined compounds were processed by the non-compartmental method using Phoenix Winnonlin software (Pharsight Corporation, USA). Linear trapezoidal integration was used to calculate areas under the concentration-time curves (AUC) and areas under the first moment curves (AUMC). The mean residence time (MRT) was determined as AUMC/AUC. The plasma half-life (HLλz), maximum plasma concentration (Cmax), the time to reach Cmax (Tmax) and other parameters following the administration of HLJDD were determined from the observed data. The HFPE was defined as HCR: HCR% = 100×(AUC0−t in the pyloric vein-AUC0−t in the jugular vein)/AUC0−t in the pyloric vein.

[3] = male, Sprague-Dawley, rat, po, 3.5 g/kg, inflamed rats (group M)
[4] = male, Sprague-Dawley, rat, po, 3.5 g/kg, normal rats (group B)

With `COc1cc(O[C@@H]2O[C@H](C(=O)O)[C@@H](O)[C@H](O)[C@H]2O)c2c(=O)cc(-c3ccccc3)oc2c1O[C@@H]1O[C@H](C(=O)O)[C@@H](O)[C@H](O)[C@H]1O` [F4, 5,8-dihyroxy-7-methoxy flavone-5,8-di-O-glucuronide] the “hepatic clearance rate (HCR)” value [1] was “approximately zero”.
With `COc1cc(O)c2c(=O)cc(-c3ccccc3)oc2c1O[C@@H]1O[C@H](C(=O)O)[C@@H](O)[C@H](O)[C@H]1O` [F7, 5,8-dihyroxy-7-methoxy flavone-8-O-glucuronide] the “hepatic clearance rate (HCR)” value [1] was “approximately zero”.
With `COC(=O)C1=CO[C@@H](O[C@@H]2O[C@H](CO)[C@@H](O)[C@H](O)[C@H]2O)[C@H]2[C@@H]1C=C[C@@]2(O)CO` [I1, gardenoside] the “hepatic clearance rate (HCR)” value [1] was -43.7%.
With `COC(=O)C1=CO[C@@H](O[C@@H]2O[C@H](CO)[C@@H](O)[C@H](O)[C@H]2O)[C@@H]2C(CO)=C[C@@H](O)[C@H]12` [I2, scandoside methyl ester] the “hepatic clearance rate (HCR)” value [1] was “approximately zero”.
With `COC(=O)C1=CO[C@@H](O[C@@H]2O[C@H](CO[C@@H]3O[C@H](CO)[C@@H](O)[C@H](O)[C@H]3O)[C@@H](O)[C@H](O)[C@H]2O)[C@@H]2C(CO)=CC[C@H]12` [I3, genipin-1-gentiobioside] the “hepatic clearance rate (HCR)” value [1] was -156.6%.
`COc1c(O)cc(O)c2c(=O)cc(-c3ccccc3)oc12` [wogonin] gave an AUC%Extrap ([2]; inflamed rats (group M)) of 1.3±0.7%, an AUMClast ([2]; inflamed rats (group M)) of 442.5±232.9 h*h*ng/ml and a Cmax1 ([2]; inflamed rats (group M)) of 3.3 ± 0.7 ng/mL. It also gave a Cmax2 ([2]; inflamed rats (group M)) of 4.3 ± 1.8 ng/mL, an HLλz ([2]; inflamed rats (group M)) of 7.1 ± 2.7 h and a Tmax1 ([2]; inflamed rats (group M)) of 4.8 ± 0 min. The Tmax2 ([2]; inflamed rats (group M)) was 7.3 ± 2.7 h, the “mean AUClast, fold larger in the inflamed group than in the control group” value ([2]; inflamed vs normal rats) was 5.4 fold and the AUC(0-inf) [2, 3] was 39.2 ± 8 ng·h/mL. For the same compound, the AUC(0-t) [2, 3] was 38.7 ± 8.1 ng·h/mL, the MRT last [2, 3] was 11 ± 3.5 h and the CL/F ([2]; male, Sprague-Dawley, rat, po, 3.5 g/kg, inflamed rats (group M), read-out: CL/F (converted)) was 2740 mL/min/kg. The Vd/F [2, 3] was 1710 ± 667 L/kg, the AUC(0-inf) [2, 4] was 7.4 ± 2.6 ng·h/mL and the AUC(0-t) [2, 4] was 7.2 ± 2.6 ng·h/mL. It also gave an MRT last [2, 4] of 4.3 ± 0.8 h, a Vd/F [2, 4] of 4010 ± 1350 L/kg and an AUC%Extrap ([2]; normal rats (group B)) of 2.7±2.3%. For the same compound, the AUMClast ([2]; normal rats (group B)) was 31.8±14.3 h*h*ng/ml, the Cmax1 ([2]; normal rats (group B)) was 2.2 ± 1.2 ng/mL and the Cmax2 ([2]; normal rats (group B)) was 1.6 ± 0.7 ng/mL. It also gave an HLλz ([2]; normal rats (group B)) of 3.5 ± 1.3 h, a Tmax1 ([2]; normal rats (group B)) of 5.4 ± 1.8 min and a Tmax2 ([2]; normal rats (group B)) of 4.0 ± 0.0 h.
For `COc1c(O[C@@H]2O[C@H](C(=O)O)[C@@H](O)[C@H](O)[C@H]2O)cc(O)c2c(=O)cc(-c3ccccc3)oc12` [wogonoside], the AUC%Extrap ([2]; inflamed rats (group M)) was 17.3±13.8%, the AUCinf ([2]; inflamed rats (group M)) was 8380.9 ± 1944.5 ng·h/mL and the AUClast ([2]; inflamed rats (group M)) was 6870.4 ± 1786.5 ng·h/mL. The AUMClast ([2]; inflamed rats (group M)) was 92756.1±44786.8 h*h*ng/ml, the CL/F ([2]; inflamed rats (group M)) was 190 ± 45 mL/min/kg and the Cmax1 ([2]; inflamed rats (group M)) was 571.9 ± 183.4 ng/mL. The Cmax2 ([2]; inflamed rats (group M)) was 323.9 ± 52.5 ng/mL, the HLλz ([2]; inflamed rats (group M)) was 12.2 ± 5.9 h and the MRTlast ([2]; inflamed rats (group M)) was 12.9 ± 3.0 h. It also gave a Tmax1 ([2]; inflamed rats (group M)) of 9.6 ± 4.8 min, a Tmax2 ([2]; inflamed rats (group M)) of 8.7 ± 3.0 h and a Vz/F ([2]; inflamed rats (group M)) of 188.6 ± 72.3 L/kg. The AUC%Extrap ([2]; normal rats (group B)) was 9.6±6.6%, the AUCinf ([2]; normal rats (group B)) was 3615.4 ± 872.3 ng·h/mL and the AUClast ([2]; normal rats (group B)) was 3302.3 ± 975.1 ng·h/mL. For the same compound, the AUMClast ([2]; normal rats (group B)) was 15357.0±3545.6 h*h*ng/ml, the CL/F ([2]; normal rats (group B)) was 442 ± 117 mL/min/kg and the Cmax1 ([2]; normal rats (group B)) was 492.9 ± 152.9 ng/mL. The Cmax2 ([2]; normal rats (group B)) was 517.7 ± 173.8 ng/mL, the HLλz ([2]; normal rats (group B)) was 3.0 ± 1.0 h and the MRTlast ([2]; normal rats (group B)) was 4.7 ± 0.5 h. The Tmax1 ([2]; normal rats (group B)) was 6.6 ± 2.4 min, the Tmax2 ([2]; normal rats (group B)) was 4.3 ± 0.8 h and the Vz/F ([2]; normal rats (group B)) was 118.7 ± 58.0 L/kg.

Reference: publication PMC4900566, “Pharmacokinetic-Pharmacodynamic Analysis on Inflammation Rat Model after Oral Administration of Huang Lian Jie Du Decoction” (PLoS ONE, 2016)
